Data as given in paper PMC2630844, “Characterizing the Anti-HIV Activity of Papuamide A” (Marine Drugs, 2008).
*1 amine or outer side, *2 acyl side, *3 side chain or, on linkers, in order; H or OH if unused. Where a SMILES comes first, the peptide text is derived from it. Bridges are numbered along the chain shown (N, C = ends). Side-chain parts run from the residue outwards. [ ]: non-standard residue; d: D form. The star is where a group is joined. Gln(3S,4R-Me2) = C[C@H]([C@H](N)C(=O)O)[C@@H](C)C(N)=O; dTyr(βR-OMe) = CO[C@H](c1ccc(O)cc1)[C@@H](N)C(=O)O; Biotin = O=C1N[C@H]2[C@H](CS[C@H]2CCCCC(=O)*)N1; X3 = CC(C)[C@@H](O[*:3])[C@H](N[*:1])C(=O)[*:2]; X1 = CCC(C)/C=C(C)/C=C\C(O)C(C)(O)C(=O)*; X2 = CC(N[*:3])[C@H](N[*:1])C(=O)[*:2]; NMeT = CN[C@H](C(=O)O)[C@@H](C)O; Pip = O=C(O)[C@@H]1CCCCN1; Ahx = NCCCCCC(=O)O

Legend:
[1] = test system: liposomes composed solely of phosphatidylcholine; conditions: cited from earlier work
From the text: (§1) Papuamide B only differs from papuamide A by one methyl group. […] PS is a phospholipid normally present on the inner leaflet of the cell membrane, but during apoptosis the regulation of PS is altered and PS is present on the outer leaflet.

[2] = test system: phosphatidylserine (PS) containing liposomes; conditions: cited from earlier work
From the text: as §1

[3] = test system: HIV-1NL(AD8) (R5 tropic virus) entry into TZM-bl cells; assay: Virion based fusion assay (BlaM-Vpr), R5 tropic virus
Experimental: Briefly, production of virus was accomplished by co-transfection of 20 μg of pMM310 (plasmid encoding β-lactamase linked to Vpr, BlaM-Vpr) [56],10 μg pAdVAntage (Invitrogen, Carlsbad, CA); and 60 μg pNL4-3(X4 tropic proviral DNA) [50] or pNL(AD8) (R5 tropic proviral DNA) [51] into 293FT cells using standard calcium phosphate transfection. Virus was collected after 48 hours and titered using the RETROtek p24 ELISA kit (ZeptoMatrix, Buffalo, NY). HeLaT4 or TZM-bl cells, 200μL at a concentration of 1 X 10^5 cells/mL, were plated into 96 well, black walled, flat bottom plates and placed in a 37°C, 5% CO2 humidified incubator overnight for attachment. Medium was aspirated and 200 μL of medium containing virus, at a predetermined p24 concentration of 200 ng/mL, was added with test compounds or vehicle. Cells were incubated at 37°C, 5% CO2 for 2 hours. Virus was aspirated off and cells rinsed twice with room temperature CO2 independent medium (Invitrogen, Carlsbad, CA). Cells were then loaded with CCF2-AM fluorescent substrate (Invitrogen, Carlsbad, CA) according to manufacturer’s protocol. Cells were incubated, protected from light, for 1 hour at room temperature and washed twice with room temperature CO2 independent medium. Next, 200 μL of room temperature CO2 independent medium supplemented with 10% FBS and 2.5mM probenecid (Sigma-Aldrich, St. Louis, MO) was added and the reaction was allowed to develop for 5–7 hours.
When fusion occurs, β-lactamase (BlaM) present in the virus cleaves the CCF2-AM substrate. This cleavage results in a change of the fluorescence emission from green to blue. Images of the cells were taken with a fluorescent microscope equipped with the appropriate filter set, Excitation filter 405±10 nm, Dicroic mirror 425, Emission Filter (blue) 460±20 nm, and Emission Filter (green) 530±15 nm. Using ImageJ, an image software program provided by NIH, the amount of green and blue fluorescence was determined. To quantify the observed fusion, a fluorescence ratio was calculated by dividing the amount of blue fluorescence by the amount of green fluorescence. This value was then normalized to the non-infected control by dividing the calculated values by the average control value.

[4] = test system: HIV-1NL4-3 (X4 tropic virus) entry into HeLa T4+ cells; assay: Virion based fusion assay (BlaM-Vpr), X4 tropic virus; type: cell-based; conditions: n≥4
[5] = test system: DHIV-3 pseudotype virus expressing X4 tropic envelope (IIINL4), CEM-SS cells; type: cell-based, HIV; conditions: duplicate determinations
sCD4 = biological target: T1, sCD4 (Homo sapiens, UniProt P01730); assay: Surface plasmon resonance, papuamide A - sCD4; type: binding
T1 construct: Soluble CD4 (sCD4)
Experimental: (§2) The expected response at saturation is determined by the following formula: LCR/MWL×MWA , (LCR=Ligand capture response, amount of papuamide A captured onto the biosensor chip; MWL=molecular weight of ligand, papuamide A; and MWA=molecular weight of analyte, the protein or peptide.)[23–26] The observed response, determined by the BIAcore instrument detector in response units (RU), can be lower than the expected response if the concentration of analyte used is below the dissociation constant (KD) concentration value, KD values were calculated by the software from the binding responses obtained with multiple concentrations of analyte. When this is the case, the fold difference in concentration values (KD/concentration of analyte used) is approximately proportionate to the fold difference in responses (expected response/observe response). Therefore, to correct for the expected response at the maximum concentration tested, the expected response at saturation was divided by the fold difference in concentration values to determine the expected response at the maximum value tested.
(§3) Binding interactions were quantified by surface plasmon resonance (SPR). Studies were performed at the University of Utah Protein Interactions facility on a BIAcore 3000 instrument. Briefly, papuamide A was biotinylated using the EZ-Link Sulfo-NHS-LC-LC-Biotin reagent (Pierce Biotechnology, Rockford, IL) with reaction products purified by reverse phase high performance liquid chromatography (HPLC). Biotinylation was confirmed by mass spec and presumed to target the free amine of the 2,3-diaminobutenoic acid. Biotinylated papuamide A was captured onto a chip with a carboxymethylated dextran matrix preimmobilized with streptavidin. Analytes were then flowed over the chip in hepes buffered saline (HBS) running buffer containing 1 mg/mL bovine serum albumin to reduce nonspecific binding. […] Data analyzed using the SCRUBBER software, developed by the University of Utah Protein Interactions Facility.

gp120 = gp120 (Human immunodeficiency virus type 1 group M subtype B, UniProt P03375); assay: Surface plasmon resonance, papuamide A - gp120; type: binding, HIV
Experimental: as §2, §3

[6] = Surface plasmon resonance, papuamide A - positive control peptide; type: binding
Experimental: as §2
Binding interactions were quantified by surface plasmon resonance (SPR). Studies were performed at the University of Utah Protein Interactions facility on a BIAcore 3000 instrument. […] Data analyzed using the SCRUBBER software, developed by the University of Utah Protein Interactions Facility.

[7] = test system: pseudotype virus expressing LAI (X4 tropic) envelope, CEM-SS cells; type: cell-based, HIV; conditions: 178 nM (Fig. 4; text 174nM); flow cytometry of GFP, 48 h; n≥3
[8] = test system: pseudotype virus expressing JRFL (R5 tropic) envelope, CEM.NKR-CCR5 cells; type: cell-based, HIV; conditions: 178 nM (Fig. 4; text 174nM); flow cytometry of GFP, 48 h; n≥3
[9] = test system: pseudotype virus expressing vesicular stomatitis virus (VSV) envelope glycoprotein, CEM-SS cells; type: cell-based, HIV pseudotyped with vesicular stomatitis virus envelope; conditions: n≥3
[10] = test system: pseudotype virus expressing amphotropic murine leukemia virus (aMLV) envelope glycoprotein, CEM-SS cells; type: cell-based; conditions: 178 nM (Fig. 4; text 174nM); flow cytometry of GFP, 48 h; n≥3
[11] = test system: NL4-3 BlaM-Vpr virus entry, HeLa T4 cells; assay: Papuamide A preincubation in virion fusion assay; type: cell-based, HIV-1; conditions: 178 nM (Fig. 6a) or 710 nM (method), n≥3
Experimental: HeLa T4 cells were infected with NL4-3 BlaM virus and treated with 710 nM papuamide A, following these three protocols: Virus pretreated with papuamide A for 30 minutes at room temperature prior to dilution and addition to the cells; Cells pretreated with papuamide A for 2 hours followed by aspiration of papuamide A containing medium and addition of virus; Virus and papuamide A added to the cells at the same time.

[12] = test system: VSV-G pseudotype virus, CEM-SS cells; type: cell-based, HIV pseudotyped with vesicular stomatitis virus envelope; conditions: n≥3
[13] = test system: 20% phosphatidylserine / 80% phosphatidylcholine vesicles; assay: Surface plasmon resonance, PS:PC vesicle binding; conditions: 20% PS, 80% PC vesicles; data not shown
Experimental: (§4) Papuamide A’s ability to bind to phosphatidylserine was observed using surface plasmon resonance. Twenty percent phosphatidylserine and 80% phosphatidylcholine (PC) vesicles were tested alongside 100% PC vesicles. […] This indicates there is a preferential binding of papuamide A to phosphatidylserine. To determine if binding of PS alone was sufficient to inhibit viral entry, annexin V (AV) was tested in the virion based fusion assay.

[14] = test system: 100% phosphatidylcholine (PC) vesicles; assay: Surface plasmon resonance, PC vesicle binding; conditions: 100% PC vesicles; data not shown
Experimental: as §4

[15] = test system: DHIV-3 pseudotype virus expressing IIINL4 envelope, CEM-SS cells; type: cell-based, HIV; conditions: papuamide A 178 nM with annexin V 0.1 μM; n=3
[16] = test system: viral infection of cells preincubated overnight; assay: Overnight preincubation of cells with papuamide A; type: cell-based, HIV; conditions: data not shown
[17] = test system: pseudotype virus infection; type: cell-based, HIV; conditions: 174nM papuamide A; flow cytometry of GFP; data not shown
HIV T cell infection = conditions: binding of PS by Annexin V; cited from earlier work
From the text: as §1

[18] = test system: HIV infection of monocyte and macrophage; conditions: binding of PS by Annexin V; cited from earlier work
From the text: as §1

papuamide B
binding to and leakage of liposomes [1]: not those composed solely of phosphatidylcholine
binding to and leakage of liposomes [2]: bind to and cause leakage of phosphatidylserine (PS) containing liposomes
inhibition of viral entry ([3]; 710 nM, NL(AD8), n≥4): approximately 80%

Cc1cn([C@H]2C[C@H](N=[N+]=[N-])[C@@H](CO)O2)c(=O)[nH]c1=O [AZT, azidothymidine]
inhibition of viral entry ([4]; AZT at 18 μM, fluorescence ratio): did not prevent viral entry
effect of delayed addition, 1 hour ([5]; C34 233 nM or AZT 3.7 μM added 1 hour after virus): no difference in activity
effect of delayed addition, 2 hours ([5]; C34 233 nM or AZT 3.7 μM added 2 hours after virus): only a minor loss of activity

CCC(C)/C=C(C)/C=C\C(O)C(C)(O)C(=O)NCC(=O)N[C@H](C(=O)N[C@H](C(=O)N[C@H](C(=O)N[C@@H]1C(=O)N[C@H](COC)C(=O)NCC(=O)N[C@@H](C)C(=O)N(C)[C@@H]([C@@H](C)O)C(=O)N[C@H]([C@H](OC)c2ccc(O)cc2)C(=O)N2CCCC[C@H]2C(=O)O[C@@H]1C(C)C)[C@@H](C)[C@@H](C)C(N)=O)C(C)NC(=O)CCCCCNC(=O)CCCCCNC(=O)CCCC[C@@H]1SC[C@@H]2NC(=O)N[C@@H]21)[C@@H](C)O (stereo partly drawn) [papuamide A] (X1-GT[X2]([Ahx-Ahx-Biotin])[Gln(3S,4R-Me2)][X3][dS](Me)GA[NMeT][dTyr(βR-OMe)][Pip]; ester 5-C)
inhibition of viral entry ([4]; 710 nM papuamide A, 2 h infection, blue/green fluorescence ratio): approximately 80%
inhibition of X4 and R5 virus entry, papuamide A alongside annexin V ([4]; Fig. 7a, X4 (NL4-3)): remained active
observed response lower than calculated expected response (sCD4; at maximum sCD4 concentration tested): 600 times lower
Fold Difference of Responses (sCD4; expected response at saturation / observed response, sCD4): 974
SPR binding response significance (sCD4; sCD4): determined not to be significant
observed response lower than calculated expected response (gp120; at maximum gp120 concentration tested): 54 times lower
Fold Difference of Responses (gp120; expected response at saturation / observed response, gp120): 1284
SPR binding response significance (gp120; gp120): determined not to be significant
SPR interaction with positive control peptide [6]: shown to interact with a positive control binding peptide
Kd ([6]; calculated by software from binding responses at multiple peptide concentrations, max 5 μM, biotinylated papuamide A captured on chip): 176 µM
inhibition of infection [7]: inhibits infection
inhibition of infection [8]: inhibits infection
inhibition of infection [9]: effectively inhibited infection
inhibition of infection [10]: effectively inhibited infection
inhibition of viral entry after cell pretreatment ([11]; cells incubated with papuamide A 2 hours, removed, two washes, then infected): did not result in inhibition of viral entry
inhibition after virus pretreatment ([11]; virus pretreated 30 minutes then diluted): rate of inhibition similar to when papuamide A was added at the same time as virus
decreased infectivity, pretreated versus simultaneous addition ([12]; 178 nM): the same as that observed when papuamide A was added to cells at the same time as VSV-G pseudotype virus
decreased infectivity after virus pretreatment [12]: ~50%
SPR vesicle binding [13]: exhibited binding to papuamide A
SPR vesicle binding [14]: did not
effect of papuamide A in presence of annexin V [15]: unchanged in the presence of AV
inhibition of infection after overnight cell preincubation [16]: failed to inhibit viral infection
inhibition of infection [17]: approximately 50%
inhibition of R5 tropic virus entry ([3]; 710-43.4 nM, n≥3): effectively inhibited the entry of the R5 tropic virus in a dose dependant manner
inhibition of X4 and R5 virus entry, papuamide A alongside annexin V ([3]; Fig. 7a, R5 (NL(AD8)), n≥4): remained active

B1: annexin V: a specific binder of PS (protein, UniProt P08758 2-320, looked up)
Annexin A5: AQVLRGTVTDFPGFDERADAETLRKAMKGLGTDEESILTLLTSRSNAQRQEISAAFKTLFGRDLLDDLKSELTGKFEKLIVALMKPSRLYDAYELKHALKGAGTNEKVLTEIIASRTPEELRAIKQVYEEEYGSSLEDDVVGDTSGYYQRMLVVLLQANRDPDAGIDEAQVEQDAQALFQAGELKWGTDEEKFITIFGTRSVSHLRKVFDKYMTISGFQIEETIDRETSGNLEQLLLAVVKSIRSIPAYLAETLYYAMKGAGTDDHTLIRVMVSRSEIDLFNIRKEFRKNFATSLYSMIKGDTSGDYKKALLLLCGEDD
inhibition of X4 virus entry ([4]; annexin V at concentrations similar to and higher than that shown to inhibit HIV infection, NL4-3): did not have any inhibitory effect
inhibition of infection (HIV T cell infection): not T cell infection
inhibition of infection [18]: able to inhibit monocyte and macrophage infection
inhibition of R5 virus entry ([3]; annexin V at concentrations similar to and higher than that shown to inhibit HIV infection, NL(AD8), n≥4): did not have any inhibitory effect
